{"source": "patent US12617757B2", "about": "“Compounds and modules for inhibition of pre-miR-21 and their use in treatment of certain cancers” (University of Florida Research Foundation, Incorporated, priority 2019, dated 2026)", "key": {"pre-miR-21 [1]": {"system": "pre-miR-21", "experiment": "RT-qPCR of mature miR-21 and pre-miR-21 levels in MDA-MB-231 cells", "type": "cell-based, human", "settings": "for effect on mature miR-21 levels / effect on pre-miR-21 levels: MDA-MB-231, RT-qPCR", "procedure": "Cell culture compound treatment and transfection. For treatment with compounds, stocks in DMSO or water were diluted in growth media and added to cells for 24-72 h. For transfection of plasmid DNA to overexpress the miR-21 hairpin precursor in pcDNA3.1 (Addgene 21114) or pcDNA3-RNaseL (R. H. Silverman, Cleveland Clinic^24) in 24-well plates, Lipofectamine 2000 was used according to the manufacturer's protocol. After transfection, the medium was removed and replaced with growth medium containing compound prepared as described above. For transfection of a control (Santa Cruz Biotechnology: sc-37007) or RNase L targeting siRNA (Santa Cruz Biotechnology: sc-45965), Lipofectamine RNAiMAX Reagent was used for transfection of oligonucleotides, including 2′-5′ A4, according to the manufacturer's protocol."}, "pre-miR-21 [2]": {"system": "pre-miR-21", "experiment": "Cellular Chem-CLIP / C-Chem-CLIP in MDA-MB-231 cells", "type": "cell-based, human", "settings": "for enrichment of the pre-miR-21 transcript by Chem-CLIP: MDA-MB-231, RT-qPCR", "procedure": "Cellular Chem-CLIP/C-Chem-CLIP. The MDA-MB-231 cells were grown to ˜70% confluency as monolayers in 60 mm dishes. The cells were treated with Chem-CLIP compounds (8 or 9) and/or non-cross-linking competitors (1 or 2) for 48 h. Total RNA was extracted using a Quick-RNA MiniPrep Kit (Zymo Research) per the manufacturer's protocol. Approximately 20-30 μg of total RNA was then incubated with 100 μL of streptavidin-agarose beads (Sigma-Aldrich) and shaken for 1 h at room temperature. The solution was removed beads washed six times with 1×PBS. The RNA bound to beads was released, purified, and used for RT-qPCR as previously described^23. Relative fold enrichment of the measured RNA before and after pulldown was measured using equation 3 (Eq. 3): Relative Fold Enrichment=2^−(ΔC^t^before pulldown−ΔC^t^after pulldown) (Eq. 3)\nwhere “ΔCt before pulldown” is the difference between the Ct values for the RNA of interest and a housekeeping gene in total RNA from cells and “ΔCt after pulldown” is the difference between the Ct values for the RNA of interest and the same housekeeping gene in RNA after pulldown."}, "pre-miR-21 WT RNA [3]": {"system": "pre-miR-21 WT RNA", "experiment": "In vitro Chem-CLIP pulldown", "type": "binding", "procedure": "In vitro Chemical Cross-linking and Isolation by Pull Down (Chem-CLIP) and Competitive Chemical Cross-linking and Isolation by Pull Down (C-Chem-CLIP). RPMI growth medium was heat inactivated at 95° C. for 15 min and then cooled to room temperature. Approximately 10,000 counts of ^32P 5′-end labeled miR-21 precursor hairpin RNA (pre-miR-21 WT) was folded in growth medium at 95° C. for 1 min. After cooling to room temperature, dilutions of Chem-CLIP probes 8 or 9^23 were added and incubated at 37° C. for 18 h. Alternatively, for C-Chem-CLIP, dilutions of competing non-cross-linking parent compounds, 1 or 2, were incubated with RNA for 1 h before addition of Chem-CLIP probe compounds. Streptavidin-agarose beads (Sigma-Aldrich) were then used to pulldown RNA. Samples were then washed with 1×PBS supplemented with 0.1% (v/v) Tween-20 and bound and unbound RNA radioactivity measured using a Beckman Coulter LS6500 Liquid Scintillation Counter as previously described^23."}, "pre-miR-21 WT": {"molecular_target": "pre-miR-21 WT", "experiment": "Microscale thermophoresis (MST) binding to pre-miR-21 WT", "settings": "read-out: Kd, binding of the pre-miR-21 RNA Dicer site", "procedure": "(§1) Microscale Thermophoresis (MST) Binding Measurements. MST fluorescent measurements were performed on a Monolith NT.115 system (NanoTemper Technologies) using the fluorescence of a miR-21 hairpin (A+U Bulge): (5′ Cy5-[…]-3′) (SEQ ID NO: 1) or a miR-21 base paired control (5′ Cy5-[…]-3′) (SEQ ID NO: 2) which were purchased from IDT with RNase-free HPLC purification and used without further purification. The RNA (5 nM) was diluted in 1×MST Buffer (8 mM Na2HPO4, 190 mM NaCl, 1 mM EDTA, and 0.05% (v/v) Tween-20) and folded by heating at 60° C. for 5 min, and slowly cooling to room temperature. Compounds 1 and 2 were diluted in 1×MST Buffer, followed by 1:3 dilutions in 1×MST Buffer containing 5 nM RNA. […] Fluorescence measurements (Ex: 605-645 nm, Em: 680-685 nm) were performed at 10% LED and 80% MST power, with a Laser-On time of 30 s and Laser-Off time of 5 s. The data were analyzed by thermophoresis analysis and fitted by the quadratic binding equation in MST analysis software (NanoTemper Technologies). Dissociation constants were then determined by curve fitting using a single-site model. Normalized MST signal was calculated by normalizing the fluorescent signals using the MST data of 1 binding to pre-miR-21 WT with the lowest signal as 0 and the highest fluorescent signal as 1."}, "pre-miR-21 BP RNA": {"system": "pre-miR-21 BP RNA", "experiment": "In vitro Dicer processing of pre-miR-21 BP", "type": "biochemical", "text": "(§2) In vitro Dicer processing. […] Cleavage products were resolved on a denaturing 15% polyacrylamide gel, which was imaged using a Molecular Dynamics Typhoon phosphorimager and quantified with Bio-Rad's QuantityOne software, normalizing to full length RNA."}, "pre-miR-21 WT RNA [4]": {"system": "pre-miR-21 WT RNA", "experiment": "In vitro Dicer processing of pre-miR-21 WT", "type": "biochemical", "text": "as §2"}, "pre-miR-21 BP": {"system": "pre-miR-21 BP", "experiment": "MST binding to pre-miR-21 BP (base paired control)", "settings": "addition of 100 μM of compound", "procedure": "as §1"}, "pre-miR-210": {"system": "pre-miR-210", "experiment": "RT-qPCR of pre-miR-210 and miR-210 in hypoxic MDA-MB-231 cells", "type": "cell-based, human", "settings": "hypoxic MDA-MB-231, RT-qPCR"}}, "note": "Where two headings read alike, the source gives them in different places.", "data": [{"smiles": "CCCN(CC(=O)N(CCC)CC(=O)N(CCC)CC(=O)N(CC(=O)NCCOCCOCCOCCOc1cc(C=C2SC(Nc3ccccc3)=C(C(=O)OCC)C2=O)ccc1O)Cc1cn(CCCNC(=O)CCCOc2ccc(-c3nc4cc(-c5ccc(N6CCN(C)CC6)cc5)ccc4[nH]3)cc2)nn1)C(=O)CN(Cc1cn(CCCNC(=O)CCCOc2ccc(-c3nc4cc(-c5ccc(N6CCN(C)CC6)cc5)ccc4[nH]3)cc2)nn1)C(C)=O", "note": "[Compound 7]", "values": [{"measurement": "effect on mature miR-21 levels", "setting": "pre-miR-21 [1]", "value": "decreased miR-21 levels"}, {"measurement": "effect on pre-miR-21 levels", "setting": "pre-miR-21 [1]", "value": "increased pre-miR-21 levels"}, {"measurement": "effect on mature miR-21 levels", "setting": "pre-miR-21 [1]; listed as Formula 7", "value": "did not have enhanced activity over Formula 2"}]}, {"smiles": "C#CCN(CC(=O)N(CCC)CC(=O)N(CCC)CC(=O)N(CCC)CC(=O)N(CC#C)CC(=O)NCCOCCOCCOCCOc1ccc(C=C2SC(Nc3ccccc3)=C(C(=O)OCC)C2=O)cc1O)C(C)=O", "note": "[Compound 6]", "values": [{"measurement": "effect on mature miR-21 levels", "setting": "pre-miR-21 [1]", "value": "inactive"}]}, {"smiles": "C#CCN(CC(=O)N(CCNC(=O)CCCCC1SCC2NC(=O)NC21)CC(N)=O)C(=O)CN(CCNC(=O)CCCc1ccc(N(CCCl)CCCl)cc1)C(C)=O", "note": "(stereo not drawn) [Compound 9, reference compound]", "values": [{"measurement": "enrichment of the pre-miR-21 transcript by Chem-CLIP", "setting": "pre-miR-21 [2]; 10 μM", "value": "no enrichment"}]}, {"smiles": "CC(=O)N(CCNC(=O)CCCc1ccc(N(CCCl)CCCl)cc1)CC(=O)N(CC(=O)N(CCNC(=O)CCCCC1SCC2NC(=O)NC21)CC(N)=O)Cc1cn(CCCNC(=O)CCCOc2ccc(-c3nc4cc(-c5ccc(N6CCN(C)CC6)cc5)ccc4[nH]3)cc2)nn1", "note": "(stereo not drawn) [Compound 8]", "values": [{"measurement": "enrichment of pre-miR-21 by Chem-CLIP pulldown", "setting": "pre-miR-21 [2]; 10 μM, MDA-MB-231", "value": "~2.5", "unit": "fold"}, {"measurement": "enrichment of the pre-miR-21 transcript by Chem-CLIP", "setting": "pre-miR-21 [2]; 10 μM", "value": "enrichment for the pre-miR-21 transcript"}, {"measurement": "pulldown of 32P 5′-end labeled pre-miR-21 WT RNA", "setting": "pre-miR-21 WT RNA [3]", "value": "greater enrichment of the RNA compared to 9"}]}, {"smiles": "CN1CCN(c2ccc(-c3ccc4[nH]c(-c5ccc(OCCCC(=O)NCCCN=[N+]=[N-])cc5)nc4c3)cc2)CC1", "note": "[Compound 1]", "values": [{"measurement": "competition of Chem-CLIP enrichment (C-Chem-CLIP)", "setting": "pre-miR-21 [2]; MDA-MB-231, versus probe 8", "value": "enrichment is depleted"}, {"measurement": "Kd", "setting": "pre-miR-21 WT", "value": 20, "unit": "µM"}, {"measurement": "protection from Dicer processing", "setting": "pre-miR-21 BP RNA", "value": "Protection with compound is observed at U26 and U27"}, {"measurement": "increase of pre-miR-21 levels", "setting": "pre-miR-21 [1]; 10 μM, MDA-MB-231", "value": 1.3, "unit": "fold"}, {"measurement": "inhibition of miR-21 production", "setting": "pre-miR-21 [1]; 10 μM, MDA-MB-231", "value": 50, "unit": "%"}, {"measurement": "effect on mature miR-21 levels", "setting": "pre-miR-21 [1]", "value": "inhibits mature miR-21-5p biogenesis"}, {"measurement": "effect on pre-miR-21 levels", "setting": "pre-miR-21 [1]", "value": "boosts levels of pre-miR-21"}, {"measurement": "inhibition of / protection from Dicer processing", "setting": "pre-miR-21 WT RNA [4]", "value": "Protection with compound is observed at U23 (boxes marked with arrows) and U26 and U27"}, {"measurement": "inhibition of / protection from Dicer processing", "setting": "pre-miR-21 WT RNA [4]; listed as Formula 1", "value": "inhibited in vitro Dicer processing"}, {"measurement": "saturation of the binding isotherm", "setting": "pre-miR-21 BP", "value": "No saturation of the binding isotherm was observed"}]}, {"smiles": "CN1CCN(c2ccc3nc(-c4ccc5nc(-c6cccc(OCCCC(=O)NCCCN=[N+]=[N-])c6)[nH]c5c4)[nH]c3c2)CC1", "note": "[Compound 26]", "values": [{"measurement": "effect on mature miR-210 levels", "setting": "pre-miR-210", "value": "inhibits mature miR-210 levels"}, {"measurement": "effect on pre-miR-210", "setting": "pre-miR-210", "value": "boosts levels of pre-miR-21"}]}, {"smiles": "CCOC(=O)C1=C(Nc2ccccc2)SC(=Cc2ccc(OCCOCCOCCOCCNC(=O)CCCOc3cccc(-c4nc5ccc(-c6nc7cc(N8CCN(C)CC8)ccc7[nH]6)cc5[nH]4)c3)c(O)c2)C1=O", "note": "[Compound 25]", "values": [{"measurement": "effect on pre-miR-210", "setting": "pre-miR-210", "value": "Cleavage of pre-miR-210"}]}]}
